Data: US20250019377A1 (JACOBIO PHARMACEUTICALS CO., LTD, priority 2021, published 2025)
pIC50: −log10 of the molar value. “And” between values parts separate entries of the source, which are not always exact repeats. Equal values may be shown once. Read-outs that look alike come from different tables or passages of the source.

Columns and labels:
K-Ras WT [1] = molecular target: T1, K-Ras WT (Homo sapiens, UniProt P01116); experiment: SOS1 catalyzed nucleotide exchange assay (GDP form K-Ras), K-Ras WT; conditions: read-out: K-Ras WT GDP Biochemical Activity (IC50)
K-Ras G13D [2] = molecular target: T2, K-Ras G13D (Homo sapiens, UniProt P01116, G13D); experiment: biochemical
K-Ras G12V [3] = molecular target: T3, K-Ras G12V (Homo sapiens, UniProt P01116, G12V); experiment: SOS1 catalyzed nucleotide exchange assay (GDP form K-Ras), K-Ras G12V; conditions: read-out: K-Ras G12V GDP Biochemical Activity (IC50)
K-Ras G13D [4] = molecular target: T2, K-Ras G13D; experiment: biochemical; remark: listed apart in the source
K-Ras G12V [5] = molecular target: T3, K-Ras G12V; experiment: biochemical
[6] = test system: p-ERK in SW620 cells (K-Ras G12V); experiment: Phospho-ERK1/2(THR202/TYR204) HTRF assay, SW620; format: cell-based; conditions: 2 hours incubation
K-Ras WT [7] = molecular target: T1, K-Ras WT; experiment: biochemical
SW620 cells (K-Ras G12V) = experiment: 2D cell growth inhibition assay, SW620; format: cell-based; conditions: 6 days, absolute IC50
Description: (§1) The cell growth inhibition activity of each of compounds was tested by performing cell growth inhibition assays on a variety of K-Ras mutant and K-Ras WT cell lines indicated in Table 25.
(§2) Each of cells in culture medium was plated in TC-treated 96-well plates at a density indicated in Table 25 and incubated in a cell incubator overnight. The next day, each of compounds was diluted in culture medium and added to the plates. After 6 days incubation in cell incubator, the cell viability was detected by CellTiter-Glo® Cell Viability Assay kit (Promega).

[8] = test system: AsPC-1 cells (K-Ras G12D); experiment: 2D cell growth inhibition assay, AsPC-1; format: cell-based; conditions: AsPC-1, K-Ras G12D, 6 days, absolute IC50
Description: as §1, §2

[9] = test system: p-ERK in AGS cells (K-Ras G12D); experiment: Phospho-ERK1/2(THR202/TYR204) HTRF assay, AGS; format: cell-based; conditions: 2 hours incubation
Description: (§3) p-ERK (MAPK pathway) inhibition activity of each of compounds in a variety of K-Ras mutant and K-Ras WT cell lines indicated in Table 23 was evaluated.
(§4) Each of cells in culture medium was seeded in 96-well plates at density indicated in Table 23 and then put in a cell incubator to incubate overnight. The next day, the culture medium was removed and the compound diluted in assay medium was added in each well. […] 10 μL of cell lysates from the 96-well plates were transferred to a 384-well plate (Greiner) containing 2.5 μL/well HTRF® pre-mixed antibodies (Cisbio 64AERPEH). The plate was incubated 4 hours at 25° C. and then read HTRF signals on Tecan Spark multimode microplate reader. The data were analyzed using a 4-parameter logistic model to calculate IC50 values.

AGS cells (K-Ras G12D) = experiment: 2D cell growth inhibition assay, AGS; format: cell-based; conditions: 6 days, absolute IC50
Description: as §1, §2

[10] = test system: NCI-H747 cells (K-Ras G13D)
Description: as §1
Each of cells in culture medium was plated in ultra-low attachment-coated 96-well plates at a density indicated in Table 25 and incubated in a cell incubator overnight. The next day, each of compounds was diluted in culture medium and added to the plates. After 6 days incubation in cell incubator, the cell viability was detected by CellTiter-Glo® 3D Cell Viability Assay kit (Promega).

[11] = test system: p-ERK in NCI-H747 cells (K-Ras G13D)
Description: as §3, §4

T2 sequence (P01116 1-169 isoform P01116-2 G13D): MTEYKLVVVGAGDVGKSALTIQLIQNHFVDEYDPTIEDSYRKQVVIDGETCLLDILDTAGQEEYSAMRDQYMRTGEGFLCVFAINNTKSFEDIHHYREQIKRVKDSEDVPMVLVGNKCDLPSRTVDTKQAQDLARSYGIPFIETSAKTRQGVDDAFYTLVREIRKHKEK
T1 sequence (P01116 1-169 isoform P01116-2): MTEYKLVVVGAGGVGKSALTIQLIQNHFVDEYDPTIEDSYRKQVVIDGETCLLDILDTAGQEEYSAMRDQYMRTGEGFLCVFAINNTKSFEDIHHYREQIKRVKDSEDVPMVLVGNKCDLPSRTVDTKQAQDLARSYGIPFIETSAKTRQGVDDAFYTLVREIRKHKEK
T3 sequence (P01116 1-169 isoform P01116-2 G12V): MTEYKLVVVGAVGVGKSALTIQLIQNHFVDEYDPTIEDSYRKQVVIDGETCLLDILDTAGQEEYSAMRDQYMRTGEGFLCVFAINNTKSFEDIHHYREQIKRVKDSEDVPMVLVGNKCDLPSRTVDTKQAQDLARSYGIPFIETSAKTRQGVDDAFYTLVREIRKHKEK

SMILES | pIC50 (K-Ras WT [1]) | pIC50 (K-Ras G13D [2]) | pIC50 (K-Ras G12V [3]) | pIC50 (K-Ras G13D [4]) | pIC50 (K-Ras G12V [5]) | IC50 ([6]; Homo sapiens, SW-620, 2 h) [nM] | pIC50 (K-Ras WT [7]) | IC50 (SW620 cells (K-Ras G12V); Homo sapiens, SW-620, 144 h) [nM] | IC50 ([8]; Homo sapiens, ASPC1, 144 h) [nM] | IC50 ([9]; Homo sapiens, 2 h) [nM] | IC50 (AGS cells (K-Ras G12D); Homo sapiens, 144 h) [nM] | IC50 [6] [nM] | IC50 (SW620 cells (K-Ras G12V)) [nM] | IC50 [8] [nM] | IC50 [9] [nM] | IC50 (AGS cells (K-Ras G12D)) [nM] | pIC50 [10] | pIC50 [11]
C#Cc1c(F)ccc2cc(O)cc(-c3ncc4c(N5CCCO[C@H](CC#N)C5)nc(OC[C@@]56CCCN5C[C@H](F)C6)nc4c3F)c12 (single isomer, unassigned) | 7.22 | < 7.00 | 7.63 | < 6.70 | 5.68 | – | – | – | – | – | – | – | – | – | – | – | – | –
C#Cc1c(F)ccc2cc(O)cc(-c3ncc4c(N5CCOC[C@@H](OC)C5)nc(OC[C@@]56CCCN5C[C@H](F)C6)nc4c3F)c12 (single isomer, unassigned) [Compound 49A] | 7.40 | < 7.00 | 7.96 | 7.61 | 5.25 | 98.6 | – | – | – | – | – | – | – | – | – | – | – | –
C#Cc1c(F)ccc2cc(O)cc(-c3ncc4c(N5CCOC[C@H](OC)C5)nc(OC[C@@]56CCCN5C[C@H](F)C6)nc4c3F)c12 (single isomer, unassigned) [Compound 49B] | 8.70 | < 7.00 | 9.11 | < 7.00 | 6.26 | 19.9 | 6.84 | 54.5 | 428 | 62.2 | 41.2 | – | – | – | – | – | – | –
C#Cc1c(F)ccc2cc(O)cc(-c3ncc4c(N5CC6COC(C6)C5)nc(OC[C@@]56CCCN5C[C@H](F)C6)nc4c3F)c12 (single isomer, unassigned) [Compound 84A, 4-(4-((1R,5S)-6-oxa-3-azabicyclo[3.2.1]octan-3-yl)-8-fluoro-2-(((2R,7aS)-2-fluorotetra-hydro-1H-pyrrolizin-7a(5H)-yl)methoxy)pyrido[4,3-d]pyrimidin-7-yl)-5-ethynyl-6-fluoronaphthalen-2-ol or 4-(4-((1S,5R)-6-oxa-3-azabicyclo[3.2.1]octan-3-yl)-8-fluoro-2-(((2R,7aS)-2-fluorotetra-hydro-1H-pyrrolizin-7a(5H)-yl)methoxy)pyrido[4,3-d]pyrimidin-7-yl)-5-ethynyl-6-fluoronaphthalen-2-ol] | 7.94 | – | 8.46 | – | 5.43 | – | 5.52 | – | – | – | – | 19.4 | 60.6 | 1100 | 29.1 | 203 | – | –
C#Cc1c(F)ccc2cc(O)cc(-c3ncc4c(N5CCCOCC5)nc(OCC56CCCN5CC(C)(F)C6)nc4c3F)c12 (stereo not drawn) [Compound 10, 5-ethynyl-6-fluoro-4-(8-fluoro-2-((2-fluoro-2-methyltetrahydro-1H-pyrrolizin-7a(5H)-yl)methoxy)-4-(1,4-oxazepan-4-yl)pyrido[4,3-d]pyrimidin-7-yl)naphthalen-2-ol] | 8.69 | – | 8.89 | – | 7.39 | 10.6 | 7.21 | 10.5 | 228 | 6.71 | 26.2 | – | – | – | – | – | – | –
C#Cc1c(F)ccc2cc(O)cc(-c3ncc4c(N5CCOC(C)CC5)nc(OC[C@@]56CCCN5C[C@H](F)C6)nc4c3F)c12 (stereo partly drawn) [Compound 17, 5-ethynyl-6-fluoro-4-(8-fluoro-2-(((2R,7aS)-2-fluorotetrahydro-1H-pyrrolizin-7a(5H)-yl)methoxy)-4-(7-methyl-1,4-oxazepan-4-yl)pyrido[4,3-d]pyrimidin-7-yl)naphthalen-2-ol trifluoroacetic acid] | – | 7.21 | 7.57 | – | 6.10 | – | – | – | – | – | – | – | – | – | – | – | – | –
C#Cc1c(F)ccc2cc(O)cc(-c3ccc4c(N5CCCOCC5)nc(OCC5(CN6CCOCC6)CC5)nc4c3F)c12 [Compound 20, 5-ethynyl-6-fluoro-4-(8-fluoro-2-((1-(morpholinomethyl)cyclopropyl)methoxy)-4-(1,4-oxazepan-4-yl)quinazolin-7-yl)naphthalen-2-ol trifluoroacetic acid] | 7.90 | – | 8.06 | – | 5.79 | 29.3 | – | 139 | 538 | 53 | 203 | – | – | – | – | – | 6.47 | 7.55
C#Cc1c(F)ccc2cc(O)cc(-c3ncc4c(N5CCCOCC5)nc(OCC56CCCN5CCC6)nc4c3F)c12 [Compound 21, 5-ethynyl-6-fluoro-4-(8-fluoro-4-(1,4-oxazepan-4-yl)-2-((tetrahydro-1H-pyrrolizin-7a(5H)-yl)methoxy)pyrido[4,3-d]pyrimidin-7-yl)naphthalen-2-ol trifluoroacetic acid] | – | – | – | – | – | 135 | – | 61.4 | 1350 | 10.2 | 51.9 | – | – | – | – | – | 6.90 | 7.22
C#Cc1c(F)ccc2cc(O)cc(-c3ncc4c(N5CC(C)COCC5C)nc(OC[C@@]56CCCN5C[C@H](F)C6)nc4c3F)c12 (stereo partly drawn) [Compound 27, 4-(4-(3,6-dimethyl-1,4-oxazepan-4-yl)-8-fluoro-2-(((2R,7aS)-2-fluorotetrahydro-1H-pyrrolizin-7a(5H)-yl)methoxy)pyrido[4,3-d]pyrimidin-7-yl)-5-ethynyl-6-fluoronaphthalen-2-ol] | 8.02 | – | 8.09 | – | 6.14 | 144 | 6.63 | 90.7 | 904 | 65.1 | 216 | – | – | – | – | – | – | –
C#Cc1c(F)ccc2cc(O)cc(-c3c(C(F)(F)F)cc4c(N5CCCOCC5)nc(OC[C@@]56CCCN5C[C@H](F)C6)nc4c3F)c12 [Compound 37, 5-ethynyl-6-fluoro-4-(8-fluoro-2-(((2R,7aS)-2-fluorotetrahydro-1H-pyrrolizin-7a(5H)-yl)methoxy)-4-(1,4-oxazepan-4-yl)-6-(trifluoromethyl)quinazolin-7-yl)naphthalen-2-ol] | 8.00 | < 7.00 | 8.17 | – | 6.83 | 92 | 6.64 | 330 | 629 | 49.2 | 278 | – | – | – | – | – | – | –
C#Cc1c(F)ccc2cc(O)cc(-c3ncc4c(N5CCOCC(C#N)C5)nc(OC[C@@]56CCCN5C[C@H](F)C6)nc4c3F)c12 (stereo partly drawn) [Compound 88] | 7.55 | < 7.00 | 7.87 | – | 5.55 | – | – | – | – | – | – | – | – | – | – | – | – | –
C#Cc1c(F)ccc2cc(O)cc(-c3ncc4c(N5CCC6CC5CO6)nc(OC[C@@]56CCCN5C[C@H](F)C6)nc4c3F)c12 (stereo partly drawn) [Compound 93] | 7.25 and 7.87 | < 7.00 | 7.70 and 8.35 | < 6.70 | 5.54 and 5.69 | 51.6 | 6.17 | 182 | – | – | – | – | – | – | – | – | – | –
C#Cc1c(F)ccc2cc(O)cc(-c3ncc4c(N5CCCOCC5)nc(OCC5CNCCN5C)nc4c3F)c12 (stereo not drawn) [Compound 96, 5-ethynyl-6-fluoro-4-(8-fluoro-2-((1-methyl-piperazin-2-yl)methoxy)-4-(1,4-oxazepan-4-yl)pyrido[4,3-d]pyrimidin-7-yl)naph-thalen-2-ol] | 7.18 | < 7.00 | 7.73 | 6.94 | 5.56 | – | – | – | – | – | – | – | – | – | – | – | – | –
C#Cc1c(F)ccc2cc(O)cc(-c3ncc4c(N5CCCOCC5)nc(OCC5CN(C(=O)C=C)CCN5C)nc4c3F)c12 (stereo not drawn) [Compound 98, 1-(3-(((7-(8-ethynyl-7-fluoro-3-hydroxy-naphthalen-1-yl)-8-fluoro-4-(1,4-oxazepan-4-yl)pyrido[4,3-d]pyrimidin-2-yl)oxy)methyl)-4-methylpiperazin-1-yl)prop-2-en-1-one] | 6.50 | < 7.00 | 7.26 | < 6.70 | 5.09 | – | < 5.30 | – | – | – | – | – | – | – | – | – | – | –
C#Cc1c(F)ccc2cc(O)cc(-c3ncc4c(N5CCCOCC5)nc(OCC5CC6CCN5CC6)nc4c3F)c12 (stereo not drawn) [Compound 99, 5-ethynyl-6-fluoro-4-(8-fluoro-4-(1,4-oxa-zepan-4-yl)-2-(quinuclidin-2-ylmethoxy)pyrido[4,3-d]pyrimidin-7-yl)naphthalen-2-ol] | 7.46 | < 7.00 | 7.65 | < 7.00 | 5.54 | – | – | – | – | – | – | – | – | – | – | – | – | –
C#Cc1c(F)ccc2cc(O)cc(-c3ncc4c(N5CCOCC(C)(F)C5)nc(OC[C@@]56CCCN5C[C@H](F)C6)nc4c3F)c12 (stereo partly drawn) [Compound 101, 5-ethynyl-6-fluoro-4-(8-fluoro-4-(6-fluoro-6-methyl-1,4-oxazepan-4-yl)-2-(((2R,7aS)-2-fluorotetrahydro-1H-pyrrolizin-7a(5H)-yl)methoxy)pyrido[4,3-d]pyrimidin-7-yl)naphthalen-2-ol] | 8.59 | – | 8.57 | 8.66 | 6.53 | 95.6 | 6.71 | 120 | 218 | 7.7 | 25.5 | – | – | – | – | – | – | –
